Measured values: publication PMC8880098, “Synthesis, Antibacterial Evaluation, and Computational Studies of a Diverse Set of Linezolid Conjugates” (Pharmaceuticals, 2022)
Converted amounts (≈) assume the structure as drawn. Where two headings read alike, the source gives them in different places.

Experiments:
[1] = system: Bacillus subtilis ATCC 6633; test: microbe, parasite or virus in culture; parameters: species or system bacteria; Broth microdilution MIC in Mueller-Hinton broth, absorbance at 620 nm; details: ATCC6633, 24 h, read-out: Observed MIC, uM (B. subtilis)
Source text: (§1) Antibacterial properties of the synthesized compounds (3a–k, 5a–f, 7a–c, 9a–c, 11a–f, 13 and 15) were screened against Gram-positive (Staphylococcus aureus ATCC 6538, Bacillus subtilis ATCC 6633) and Gram-negative (Pseudomonas aeruginosa ATCC 15,692 and Escherichia coli ATCC 47076) bacteria utilizing the standard technique. Linezolid was used as a standard reference/drug in the current study. The tested bacterial strains were obtained from MERCIN Center, Faculty of Agriculture, Ain Shams University, Cairo, Egypt. To determine the antibacterial activity, stock solutions of the tested compounds and standard reference were prepared with up to 100% DMSO and stored at […]. If necessary, the solutions were heated to 40–60 °C before testing to facilitate complete dissolution. Double distilled water was used in all dilutions prepared. […] A microdilution susceptibility test was used for MIC determination (Mueller–Hinton broth in 96-well plates) according to the CLSI (the Clinical and Laboratory Standards Institute, Malvern, PA, USA). The bacterial inoculum was adjusted to approximately 2.5–3 × 10^4 cells/mL in Mueller–Hinton broth and incubated in a ratio of 1:1 with the test derivatives in polystyrene 96-well flat-bottom microplates. Positive growth control (without test derivatives) and negative control (without bacteria) were included. The microplates were placed in an incubator set to 37 °C for 24 h. Absorbance was measured at 620 nm at the end of the incubation period. The cut-off level for follow-up studies was defined as a minimum of 90% inhibition of growth compared to the untreated sample. Experiments were conducted once in triplicate. For selected compounds, minimum inhibitory concentration (MIC) values were determined by dose–response experiments. Experiments were performed at least twice, in triplicate per concentration tested.

[2] = system: Staphylococcus aureus ATCC 6538; test: microbe, parasite or virus in culture; parameters: species or system bacteria; Broth microdilution MIC in Mueller-Hinton broth, absorbance at 620 nm; details: ATCC6538, 24 h, read-out: Observed MIC, uM (S. aureus)
Source text: as §1

[3] = system: Pseudomonas aeruginosa ATCC 15692; test: Antibacterial MIC, microdilution susceptibility test (CLSI); format: cell-based
Source text: (§2) The synthesized linezolid conjugates (3a–k, 5a–f, 7a–c, 9a–c, 11a–f, 13, and 15) were subjected for antimicrobial properties determination against Gram-positive (Staphylococcus aureus ATCC 6538, Bacillus subtilis ATCC 6633) and Gram-negative (Pseudomonas aeruginosa ATCC 15692, Escherichia coli ATCC 47076) bacteria by the standard technique.
(§3) Antibacterial properties of the synthesized compounds (3a–k, 5a–f, 7a–c, 9a–c, 11a–f, 13 and 15) were screened against Gram-positive (Staphylococcus aureus ATCC 6538, Bacillus subtilis ATCC 6633) and Gram-negative (Pseudomonas aeruginosa ATCC 15,692 and Escherichia coli ATCC 47076) bacteria utilizing the standard technique. Linezolid was used as a standard reference/drug in the current study. The tested bacterial strains were obtained from MERCIN Center, Faculty of Agriculture, Ain Shams University, Cairo, Egypt.
as §1, with “To” for “Antibacterial properties of the synthesized compounds (3a–k, 5a–f, 7a–c, 9a–c, 11a–f, 13 and 15) were screened against Gram-positive (Staphylococcus aureus ATCC 6538, Bacillus subtilis ATCC 6633) and Gram-negative (Pseudomonas aeruginosa ATCC 15,692 and Escherichia coli ATCC 47076) bacteria utilizing the standard technique. Linezolid was used as a standard reference/drug in the current study. The tested bacterial strains were obtained from MERCIN Center, Faculty of Agriculture, Ain Shams University, Cairo, Egypt. To”

[4] = system: Bacillus subtilis ATCC 6633; test: as above; format: cell-based; details: Bacillus subtilis
Source text: as §2, §3
as §1, with “To” for “Antibacterial properties of the synthesized compounds (3a–k, 5a–f, 7a–c, 9a–c, 11a–f, 13 and 15) were screened against Gram-positive (Staphylococcus aureus ATCC 6538, Bacillus subtilis ATCC 6633) and Gram-negative (Pseudomonas aeruginosa ATCC 15,692 and Escherichia coli ATCC 47076) bacteria utilizing the standard technique. Linezolid was used as a standard reference/drug in the current study. The tested bacterial strains were obtained from MERCIN Center, Faculty of Agriculture, Ain Shams University, Cairo, Egypt. To”

[5] = system: Staphylococcus aureus ATCC 6538; test: as above; format: cell-based; details: Staphylococcus aureus
Source text: as §2, §3
as §1, with “To” for “Antibacterial properties of the synthesized compounds (3a–k, 5a–f, 7a–c, 9a–c, 11a–f, 13 and 15) were screened against Gram-positive (Staphylococcus aureus ATCC 6538, Bacillus subtilis ATCC 6633) and Gram-negative (Pseudomonas aeruginosa ATCC 15,692 and Escherichia coli ATCC 47076) bacteria utilizing the standard technique. Linezolid was used as a standard reference/drug in the current study. The tested bacterial strains were obtained from MERCIN Center, Faculty of Agriculture, Ain Shams University, Cairo, Egypt. To”

[6] = system: Escherichia coli ATCC 47076; test: as above; format: cell-based
Source text: as §2, §3
as §1, with “To” for “Antibacterial properties of the synthesized compounds (3a–k, 5a–f, 7a–c, 9a–c, 11a–f, 13 and 15) were screened against Gram-positive (Staphylococcus aureus ATCC 6538, Bacillus subtilis ATCC 6633) and Gram-negative (Pseudomonas aeruginosa ATCC 15,692 and Escherichia coli ATCC 47076) bacteria utilizing the standard technique. Linezolid was used as a standard reference/drug in the current study. The tested bacterial strains were obtained from MERCIN Center, Faculty of Agriculture, Ain Shams University, Cairo, Egypt. To”

[7] = ATCC15692, Mueller–Hinton broth, 37 °C, 24 h, read-out: MIC, μg/mL ± SE, P. Aeruginosa (ATCC 15692)
[8] = ATCC15692, value in parentheses, read-out: MIC (μmol), P. Aeruginosa (ATCC 15692) (converted)
[9] = ATCC6633, 24 h, Mueller–Hinton broth, 37 °C, 24 h, read-out: MIC, μg/mL ± SE, B. Subtilis (ATCC 6633)
[10] = ATCC6538, 24 h, Mueller–Hinton broth, 37 °C, 24 h, read-out: MIC, μg/mL ± SE, S. Aureus (ATCC 6538)
[11] = ATCC47076, Mueller–Hinton broth, 37 °C, 24 h, read-out: MIC, μg/mL ± SE, E. Coli (ATCC 47076)
[12] = ATCC47076, value in parentheses, read-out: MIC (μmol), E. Coli (ATCC 47076) (converted)
[13] = ATCC6538, value in parentheses, read-out: MIC (μmol), S. Aureus (ATCC 6538) (converted)

melting point	MIC ([4]; ATCC6633, as quoted in running text, read-out: MIC against B. subtilis)	MIC ([4]; ATCC6633, value in parentheses, read-out: MIC (μmol), B. Subtilis (ATCC 6633) (converted))	MIC ([5]; ATCC6538, as quoted in running text, read-out: MIC against S. aureus)	MIC [5, 13]	MIC ([3]; ATCC15692, read-out: MIC against P. aeruginosa)	Compound	MIC [1]	MIC [2]	MIC [3, 7]	MIC [3, 8]	MIC [4, 9]	MIC [5, 10]	MIC [6, 11]	MIC [6, 12]
–	–	–	–	–	–	CC(C)[C@H](NC(=O)OC(C)(C)C)C(=O)NC[C@H]1CN(c2ccc(N3CCOCC3)c(F)c2)C(=O)O1 [Compound 3h, Tert-butyl ((S)-1-((((S)-3-(3-fluoro-4-morpholinophenyl)-2-oxooxazolidin-5-yl)methyl)amino)-3-methyl-1-oxobutan-2-yl)carbamate]	64.7 µM (≈ 32 µg/mL)	64.7 µM (≈ 32 µg/mL)	32 ± 0.5 µg/mL	64.7 µM	32 ± 0.7 µg/mL	32 ± 1.3 µg/mL	32 ± 1.1 µg/mL	64.7 µM
–	–	–	–	–	–	CSCC[C@H](NC(=O)OC(C)(C)C)C(=O)NC[C@H]1CN(c2ccc(N3CCOCC3)c(F)c2)C(=O)O1 [Compound 3i, Tert-butyl ((S)-1-((((S)-3-(3-fluoro-4-morpholinophenyl)-2-oxooxazolidin-5-yl)methyl)amino)-4-(methylthio)-1-oxobutan-2-yl)carbamate]	60.8 µM (≈ 32 µg/mL)	60.8 µM (≈ 32 µg/mL)	32 ± 0.8 µg/mL	60.8 µM	32 ± 1.4 µg/mL	32 ± 2.1 µg/mL	32 ± 0.5 µg/mL	60.8 µM
–	–	–	–	–	–	CC[C@H](C)[C@H](NC(=O)OC(C)(C)C)C(=O)NC[C@H]1CN(c2ccc(N3CCOCC3)c(F)c2)C(=O)O1 [Compound 3k, Tert-butyl ((2S,3S)-1-((((S)-3-(3-fluoro-4-morpholinophenyl)-2-oxooxazolidin-5-yl)methyl)amino)-3-methyl-1-oxopentan-2-yl)carbamate]	62.9 µM (≈ 32 µg/mL)	62.9 µM (≈ 32 µg/mL)	32 ± 1.3 µg/mL	62.9 µM	32 ± 1.3 µg/mL	32 ± 2.1 µg/mL	32 ± 2.1 µg/mL	62.9 µM
195 to 197 °C	2.33 to 2.5 µM	2.33 µM	9.34 to 10 µM	9.34 µM	–	CNc1ccc(C(=O)NC[C@H]2CN(c3ccc(N4CCOCC4)c(F)c3)C(=O)O2)cc1 [Compound 5e, (S)-N-((3-(3-Fluoro-4-morpholinophenyl)-2-oxooxazolidin-5-yl)methyl)-4-(methylamino) benzamide]	–	–	32 ± 2.2 µg/mL	74.7 µM	1 ± 0.1 µg/mL	4 ± 0.2 µg/mL	32 ± 1.6 µg/mL	74.7 µM
198 to 200 °C	–	–	–	20 µM	20 µM	O=C(NC[C@H]1CN(c2ccc(N3CCOCC3)c(F)c2)C(=O)O1)c1ccncc1 [Compound 7a, (S)-N-((3-(3-Fluoro-4-morpholinophenyl)-2-oxooxazolidin-5-yl)methyl)isonicotin-amide]	5 µM (≈ 2 µg/mL)	–	8 ± 0.1 µg/mL	20 µM	2 ± 0.2 µg/mL	8 ± 0.3 µg/mL	32 ± 0.9 µg/mL	79.9 µM
–	–	–	–	–	–	O=C1O[C@@H](CNCc2ccc(F)cc2)CN1c1ccc(N2CCOCC2)c(F)c1 [Compound 11a, (S)-3-(3-Fluoro-4-morpholinophenyl)-5-[{(4-fluorobenzyl)amino}methyl] oxazolidin-2-one]	79.3 µM (≈ 32 µg/mL)	79.3 µM (≈ 32 µg/mL)	32 ± 2.2 µg/mL	79.3 µM	32 ± 1.2 µg/mL	32 ± 2.7 µg/mL	32 ± 2.5 µg/mL	79.3 µM
–	–	–	–	–	–	CS(=O)(=O)c1ccc(CNC[C@H]2CN(c3ccc(N4CCOCC4)c(F)c3)C(=O)O2)cc1 [Compound 11b, (S)-3-(3-Fluoro-4-morpholinophenyl)-5-[{(4-(methylsulfonyl)benzyl}amino]methyl) oxazolidin-2-one]	69 µM (≈ 32 µg/mL)	69 µM (≈ 32 µg/mL)	64 ± 2.8 µg/mL	138 µM	32 ± 1.4 µg/mL	32 ± 1.2 µg/mL	32 ± 1.1 µg/mL	69 µM
–	–	–	–	–	–	O=C1O[C@@H](CNCc2ccc(C(F)(F)F)cc2)CN1c1ccc(N2CCOCC2)c(F)c1 [Compound 11c, (S)-3-(3-Fluoro-4-morpholinophenyl)-5-[{(4-(trifluoromethyl)benzyl}amino]methyl) oxazolidin-2-one]	35.3 µM (≈ 16 µg/mL)	70.6 µM (≈ 32 µg/mL)	64 ± 1.5 µg/mL	141 µM	16 ± 0.4 µg/mL	32 ± 0.8 µg/mL	32 ± 0.9 µg/mL	70.6 µM
–	–	–	–	–	–	O=C1O[C@@H](CNCc2cccc(Cl)c2)CN1c1ccc(N2CCOCC2)c(F)c1 [Compound 11d, (S)-5-[{(3-Chlorobenzyl)amino}methyl]-3-(3-fluoro-4-morpholinophenyl) oxazolidin-2-one]	76.2 µM (≈ 32 µg/mL)	76.2 µM (≈ 32 µg/mL)	32 ± 1.7 µg/mL	76.2 µM	32 ± 1.2 µg/mL	32 ± 1 µg/mL	32 ± 2.1 µg/mL	76.2 µM
–	–	–	–	–	–	COc1cc(CNC[C@H]2CN(c3ccc(N4CCOCC4)c(F)c3)C(=O)O2)cc(OC)c1 [Compound 11f, (S)-5-[{(3,5-Dimethoxybenzyl)amino}methyl]-3-(3-fluoro-4-morpholinophenyl) oxazo-lidine-2-one]	71.8 µM (≈ 32 µg/mL)	71.8 µM (≈ 32 µg/mL)	32 ± 1.9 µg/mL	71.8 µM	32 ± 0.3 µg/mL	32 ± 1.7 µg/mL	32 ± 0.8 µg/mL	71.8 µM
–	–	–	–	–	–	O=C1O[C@@H](CNCCCO[N+](=O)[O-])CN1c1ccc(N2CCOCC2)c(F)c1 [Compound 13, (S)-3-[{(3-(3-Fluoro-4-morpholinophenyl)-2-oxooxazolidin-5-yl)methyl}amino] propyl nitrate]	80.3 µM	80.3 µM	32 ± 1.5 µg/mL	80.3 µM	32 ± 0.9 µg/mL	32 ± 1 µg/mL	32 ± 0.6 µg/mL	80.3 µM

Compound	melting point	MIC ([4]; ATCC6633, as quoted in running text, read-out: MIC against B. subtilis)	MIC ([4]; ATCC6633, value in parentheses, read-out: MIC (μmol), B. Subtilis (ATCC 6633) (converted))	MIC ([5]; ATCC6538, as quoted in running text, read-out: MIC against S. aureus)	MIC [5, 13]	MIC ([3]; ATCC15692, read-out: MIC against P. aeruginosa)	MIC [1]	MIC [2]	MIC [3, 7]	MIC [3, 8]	MIC [4, 9]	MIC [5, 10]	MIC [6, 11]	MIC [6, 12]
O=C(N[C@@H](Cc1ccccc1)C(=O)NC[C@H]1CN(c2ccc(N3CCOCC3)c(F)c2)C(=O)O1)OCc1ccccc1 [Compound 3e, Benzyl ((S)-1-((((S)-3-(3-fluoro-4-morpholinophenyl)-2-oxooxazolidin-5-yl)methyl)amino)-1-oxo-3-phenylpropan-2-yl)carbamate]	120 to 122 °C	–	–	–	–	–	55.5 µM (≈ 32 µg/mL)	55.5 µM (≈ 32 µg/mL)	64 ± 2.1 µg/mL	111 µM	32 ± 1.9 µg/mL	32 ± 2.2 µg/mL	32 ± 1 µg/mL	55.5 µM
